Data on one molecule can be found in patent publication US6620418B1, “Antiseptic/antifungal agent and endermic liniment composition which contains it” (Shiseido Company, Ltd., priority 1999, dated 2003).

The test has as its system Mold, yeast, and bacteria. The test is described as follows: The antiseptic effectiveness evaluation test. Format: cell-based. As to the method: The Antiseptic Effectiveness Evaluation Test 30 ml of the sample was inoculated with microbe-containing fluid, and the change in the number of microbes was checked with the smearing method. Mold, yeast, and bacteria were used as the inoculation microbes. The antiseptic effectiveness was evaluated based on the changes in the number of the microbes in two weeks, and the obtained results were classified by using the following four step criterion. […] X: No reduction in microbes was observed.

Regarding `CCCCC(CC)(CO)CO` [2-n-butyl-2-ethyl-1,3-propanediol], under “1,3-butylene glycol additionally blended into the composition”, the “concentration at which an adequate effect on bacteria was confirmed” value is reported as 0.1%. For the same molecule, the “concentration of 2-n-butyl-2-ethyl-1,3-propanediol at which the compositions showed adequate antiseptic effectiveness” value (lotions of Table 1-2, effect on all the mold, yeast, and bacteria) is at least 0.5%.
